Data taken from patent US7683211B2, “Jasmonate derivative compounds pharmaceutical compounds and methods of use thereof” (Ramot at Tel-Aviv University Ltd., priority 2003, dated 2010).
pIC50: −log10 of the molar value. Where two headings read alike, the source gives them in different places.

Key:
[1] = test system: Molt-4 lymphoblastic leukemia cells; assay: CellTiter 96 MTS cytotoxicity assay, Molt-4 leukemia cells; format: cell-based, human; details: for pIC50: Homo sapiens, 24 h, Molt-4 at 2.5×10^4/ml
Method: (§1) Measurement of reduction in the number of living cells was determined by, the CellTiter 96 Aqueous Non-Radioactive Cell Proliferation Assay (Promega, Madison Wis.). Upon completion of a given experiment, MTS (a tetrazolium compound) at 333 μg/ml+phenazine methosulfate (at 25 μM) was added to each well of the 96-well plate for 1 hour at 37° C. This allowed for development of a color reaction in which dehydrogenases reduce the MTS in metabolically active cells. Since the cells were not washed before the addition of MTS, there were no potentially loosely adherent or non-adherent cells that could have been problematic. Soluble MTS formazan product was measured at a wavelength of 490 nm using a CERES 900 HDI ELISA reader (Bio-Tek Instruments, Inc, Highland Park, Vt.), Optical density is directly proportional to the number of living cells in culture. Cytotoxicity (%) was calculated in the following way: [(OD of control cells−OD of drug-treated cells)/OD of control cells]×100.
(§2) Molt-4 lymphoblastic leukemia cells (at 1.5×10^4/well), 3LL lung carcinoma cells (at 4×10^3/well), B16 melanoma cells (at 4×10^3/well), or HCT116 colon carcinoma cells (at 4×10^3/well) were seeded in 96-well plates and methyl jasmonate (MJ) or MJDB at 0.5 mM were added for 1 day. Optical density representing viable cells was determined by the CellTiter 96 Aqueous Non-Radioactive Cell Proliferation Assay (described above). Cytotoxicity was calculated as the % of control untreated cultures, mean±SD. n=3.
(§3) The optical density that represented viable cells was determined by the CellTiter 96 Aqueous Non-Radioactive Cell Proliferation Assay (Promega, Madison, Wis.), as described above. Cytotoxicity was calculated as % of control untreated cultures, mean±SE. n=3.
Biological assays were performed with a 1:1 mixture of the aforementioned tetra bromo isomers. More specifically, Molt-4 leukemic cells (at 2.5×10^4/ml) were incubated for one day in 96-well plates in the presence of different concentrations of either MJ or MJTB. The optical density that represented viable cells was determined by the CellTiter 96 Aqueous Non-Radioactive Cell Proliferation Assay (Promega, Madison, Wis.) as described above. Cytotoxicity is calculated as % of control untreated cultures, mean±SE. n=3.
Molt-4 (leukemia) cells (at 2.5×10^4/ml), and normal peripheral blood lymphocytes (PBL, at 2×10^5/ml) were incubated in 96-well plates for one day in the presence of different concentrations of MJTB. PBL were pre-incubated with 0.8 μg/ml phytohaemagglutinin +5 ng/ml TPA for 48 hours, to induce entrance into the cell cycle. These cells proliferate and therefore are similar in that respect to cancer cells, making the comparison more valid. The optical density that represented viable cells was determined by the CellTiter 96 Aqueous Non-Radioactive Cell Proliferation Assay (Promega, Madison, Wis.), as described above.
Molt4 leukemic cells (at 1.5×10^4/ml) were incubated for 1 day in the presence of different concentrations of halogenated derivatives of MJ. Specifically, these derivatives were MJS72f5 (one of R6 and R7 is iodo and the other is methoxy), MJS99 (R6 and R7 are each fluoro) and NJ-63 (one of R6 and R7 is bromo and the other is hydroxyl). The optical density that represented viable cells was determined by the CellTiter 96 Aqueous Non-Radioactive Cell Proliferation Assay (Promega, Madison, Wis.), described above. […] Another derivative.

[2] = test system: lymphomas in mice; details: from U.S. Pat. No. 6,469,061; cited from earlier work
[3] = test system: ATP levels in Molt-4 leukemia cells; assay: ATP determination assay (CellTiter-Glo) in Molt-4 cells; format: cell-based, human; details: MJDB at 1 mM (MJ at 3 mM) for 10, 30 or 60 minutes at 37° C., FIG. 4
Method: An ATP determination assay was used to assess the effect of MJDB on ATP levels in cancer cells. More specifically, Molt-4 cells (at 1×10^4/well) were seeded in 96-well opaque-walled plates and MJ at 3 mM or MJDB at 1 mM were added for 10, 30 or 60 minutes at 37° C. Untreated cells incubated in culture medium were used as control. ATT levels were determined by the CellTiter-Glo™ Luminescent Cell Viability Assay; an assay in which cells produce a lumineascence signal that is equivalent to the ATP concentration in the cell. ATP depletion is calculated as % of control untreated cultures, mean±SD. n=3.

[4] = test system: peripheral blood lymphocytes from chronic lymphocytic leukemia (CLL) patients; assay: CellTiter 96 MTS cytotoxicity assay, CLL patient lymphocytes; format: cell-based, human; details: 1 day, several concentrations, FIG. 1; P<0.05 versus healthy donors
Method: as §1
(§4) In order to test the toxicity of MJDB towards human leukemia cells, peripheral blood lymphocytes from chronic lymphocytic leukemia (CLL) patients were harvested. […] The optical density that represented viable cells was determined by the CellTiter 96 Aqueous Non-Radioactive Cell Proliferation Assay (Promega, Madison, Wis.); an assay in which viable cells produce a colored product, as described above. […]

[5] = test system: B16 melanoma cells; assay: CellTiter 96 MTS cytotoxicity assay, B16 melanoma cells; format: cell-based
Method: as §1
as §2, with “Optical density representing viable cells was determined by the CellTiter 96 Aqueous Non-Radioactive Cell Proliferation Assay (described above).” left out, “n=3. […]” for “n=3.”

[6] = test system: HCT116 colon carcinoma cells; assay: CellTiter 96 MTS cytotoxicity assay, HCT116 colon carcinoma cells; format: cell-based, human; details: 0.5 mM, 1 day, FIG. 2, P<0.05
Method: as §1
as §2, with “Optical density representing viable cells was determined by the CellTiter 96 Aqueous Non-Radioactive Cell Proliferation Assay (described above).” left out

[7] = test system: 29M4.1 B lymphoma cells expressing wild type p53; assay: CellTiter 96 MTS cytotoxicity assay, 29M4.1 B lymphoma clone with wild type p53; format: cell-based; details: 1 day, several concentrations, FIG. 3
Method: as §1
(§5) A system of two B lymphoma clones originating from the same cell line (29M4.1) was used. These clones differed solely in the expression of wild type versus mutant p53. […] The optical density that represented viable cells was determined by the CellTiter 96 Aqueous Non-Radioactive Cell Proliferation Assay (Promega, Madison, Wis.).

[8] = test system: peripheral blood lymphocytes from healthy donors; assay: CellTiter 96 MTS cytotoxicity assay, lymphocytes from healthy donors; format: cell-based, human; details: 1 day, several concentrations, FIG. 1
Method: as §1, §4

[9] = test system: 3LL lung carcinoma cells; assay: CellTiter 96 MTS cytotoxicity assay, 3LL lung carcinoma cells; format: cell-based, mouse; details: 0.5 mM, 1 day, FIG. 2, P<0.05
Method: as §1
as §2, with “Optical density representing viable cells was determined by the CellTiter 96 Aqueous Non-Radioactive Cell Proliferation Assay (described above).” left out

[10] = test system: 29M4.1 B lymphoma cells expressing mutant p53; assay: CellTiter 96 MTS cytotoxicity assay, 29M4.1 B lymphoma clone with mutant p53; format: cell-based; details: 1 day, several concentrations, FIG. 3
Method: as §1, §5

[11] = test system: B16MDR (melanoma exhibiting multidrug resistance) cells; assay: CellTiter 96 MTS cytotoxicity assay, B16MDR melanoma cells; format: cell-based, human; details: Mus musculus, 24 h; B16MDR at 2×10^3/ml, one day incubation, MTS readout; read-out: IC50 (cytotoxicity), B16 MDR
Method: as §1, §3

[12] = CellTiter 96 MTS cytotoxicity assay, stimulated normal PBL; format: cell-based; details: PBL at 2×10^5/ml, pre-incubated with phytohaemagglutinin + TPA for 48 hours, one day with compound
Method: as §1
(§6) Molt-4 (leukemia) cells (at 2.5×10^4/ml), and normal peripheral blood lymphocytes (PBL, at 2×10^5/ml) were incubated in 96-well plates for one day in the presence of different concentrations of MJTB. […] The optical density that represented viable cells was determined by the CellTiter 96 Aqueous Non-Radioactive Cell Proliferation Assay (Promega, Madison, Wis.), as described above.

[13] = test system: normal peripheral blood lymphocytes (PBL); assay: as above; format: cell-based; details: PBL versus Molt-4
Method: as §1, §6

[14] = test system: D122 (lung carcinoma) cells; assay: CellTiter 96 MTS cytotoxicity assay, D122 lung carcinoma cells; format: cell-based, human; details: Mus musculus, 24 h; D122 at 5×10^3/ml, one day incubation, MTS readout
Method: as §1, §3

[15] = one day, MJTB as 1:1 mixture of tetra bromo isomers (Example 6), read-out: IC50 (concentration exhibiting 50% cytotoxicity), Molt-4, MJTB versus MJ

SMILES	pIC50 [1, 15]	prevention of development of lymphomas in mice [2]	cytotoxic effect compared to methyl jasmonate, Molt-4 ([1]; 0.5 mM, 1 day, FIG. 2, P<0.05)	ATP depletion [3]	cytotoxicity towards lymphocytes from CLL patients [4]	cytotoxic effect compared to methyl jasmonate, B16 ([5]; 0.5 mM, 1 day, FIG. 2, P<0.05)	cytotoxic effect compared to methyl jasmonate, HCT116 [6]	cytotoxicity towards B lymphoma cells expressing wild type p53 [7]	cytotoxicity towards lymphocytes from healthy donors [8]	cytotoxic effect compared to methyl jasmonate, 3LL [9]	cytotoxicity towards B lymphoma cells expressing mutant p53 [10]	pIC50 ([1]; one day incubation, MTS readout (Example 5), read-out: IC50 (cytotoxicity), Molt-4)	IC50 of MJTB smaller than that of MJ (fold) ([1]; Molt-4 cells, one day)	pIC50 [11]	pIC50 ([5]; 24 h, B16 at 2×10^3/ml, one day incubation, MTS readout)	IC50 at 1 day [12] [µM]	IC50 for normal peripheral blood lymphocytes relative to leukemic cells [13]	pIC50 [14]
CC/C=C\CC1C(=O)CCC1CC(=O)OC (stereo not shown) [MJ, methyl jasmonate, reference compound]	3.30	effective in preventing development of lymphomas in mice																
CCC(Br)C(Br)CC1C(=O)CCC1CC(=O)OC (stereo not shown) [MJDB, methyl jasmonate di-bromide]			highly superior in its cytotoxic effect	rapid and strong ATP depletion	highly and selectively cytotoxic	highly superior in its cytotoxic effect	highly superior in its cytotoxic effect	equally cytotoxic	cytotoxicity is minimal	highly superior in its cytotoxic effect	equally cytotoxic							
CCC(Br)C(Br)C[C@@]1(Br)C(=O)[C@@H](Br)CC1CC(=O)OC (stereo partly shown) [MJTB, methyl jasmonate tetra-bromide]	5.10											5.10	about 60 times	4.10	4.10	250	larger than that for leukemic cells by more than an order of magnitude	4.30
